The values that follow are results of earlier work, collected in US20260027218A1, “STAR-SHAPED GRAFT COPOLYMERS” (POLYPEPTIDE THERAPEUTIC SOLUTIONS, S.L., priority 2022, published 2026).

As to `CCN(CC)c1ccc2nc3c4ccccc4c(=O)cc-3oc2c1` [Nile Red], the log P (as a rule, a log measure of how a compound divides between an organic and an aqueous phase) is 2.98.
